Each block holds one compound with its values, some of them ahead of it. *1 amine or outer side, *2 acyl side, *3 side chain or, on linkers, in order; H or OH if unused. Where a SMILES comes first, the peptide text is derived from it. [ ]: non-standard residue; d: D form. The star is where a group is joined. X1 = CCCCCCCCCCCCCCCC(=O)OCCOCCOCCNCCC[C@H](N[*:1])C(=O)[*:2]; Phe(4-NO2) = N[C@@H](Cc1ccc([N+](=O)[O-])cc1)C(=O)O; 4Thiazolecarbonyl(2-NH2) = Nc1nc(C(=O)*)cs1; Palmitoyl = CCCCCCCCCCCCCCCC(=O)*; Orn = NCCC[C@H](N)C(=O)O; 2Furoyl = O=C(c1ccco1)*
Assays:
[1] = target: T1, Proteinase-activated receptor 2 (Homo sapiens, UniProt P55085); assay: Agonist activity at PAR2 in human HT-29 cells assessed as increase in intracellular calcium release; format: functional, cell-based
T1 sequence (P55085 whole entry): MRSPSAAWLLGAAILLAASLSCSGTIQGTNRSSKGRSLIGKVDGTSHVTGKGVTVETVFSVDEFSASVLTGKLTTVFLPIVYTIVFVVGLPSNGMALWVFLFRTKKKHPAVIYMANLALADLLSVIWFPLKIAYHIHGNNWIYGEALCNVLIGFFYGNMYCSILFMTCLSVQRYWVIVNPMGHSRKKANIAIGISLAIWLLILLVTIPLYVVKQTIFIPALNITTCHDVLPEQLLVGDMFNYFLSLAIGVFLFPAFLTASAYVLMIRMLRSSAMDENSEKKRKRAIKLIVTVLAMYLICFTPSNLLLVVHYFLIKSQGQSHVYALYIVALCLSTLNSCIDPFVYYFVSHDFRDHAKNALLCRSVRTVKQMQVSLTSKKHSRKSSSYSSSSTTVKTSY

[2] = target: T1, Proteinase-activated receptor 2; assay: Antagonist activity at human PAR2 expressed in human NCTC-2544 cells assessed as inhibition of SLIGKV-NH2-induced NFkappaB activation preincubated for 15 to 30 mins followed by SLIGKV-NH2 addition measured after 6 hrs by luciferase reporter gene assay; format: cell-based
[3] = target: T1, Proteinase-activated receptor 2; assay: Displacement of [3H]2-furoyl-LIGRL-NH2 from human PAR2 expressed in human NCTC-2544 cells by scintillation counting analysis; format: cell-based
[4] = target: T1, Proteinase-activated receptor 2; assay: Antagonist activity at PAR2 in human HT-29 cells assessed as inhibition of agonist-induced calcium mobilization; format: functional, cell-based
[5] = target: T1, Proteinase-activated receptor 2; assay: Antagonist activity at PAR2 in human HaCaT cells assessed as inhibition of SLIGKV-NH2-induced intracellular calcium release; format: functional, cell-based
[6] = target: T1, Proteinase-activated receptor 2; assay: Agonist activity at PAR2 (unknown origin) by cell-based assay
[7] = target: T2, Proteinase-activated receptor 2 (Rattus norvegicus, UniProt Q63645); assay: Antagonist activity at rat PAR2 expressed in rat KNRK cells assessed as inhibition of trypsin-induced receptor activation; format: cell-based
T2 sequence (Q63645 whole entry): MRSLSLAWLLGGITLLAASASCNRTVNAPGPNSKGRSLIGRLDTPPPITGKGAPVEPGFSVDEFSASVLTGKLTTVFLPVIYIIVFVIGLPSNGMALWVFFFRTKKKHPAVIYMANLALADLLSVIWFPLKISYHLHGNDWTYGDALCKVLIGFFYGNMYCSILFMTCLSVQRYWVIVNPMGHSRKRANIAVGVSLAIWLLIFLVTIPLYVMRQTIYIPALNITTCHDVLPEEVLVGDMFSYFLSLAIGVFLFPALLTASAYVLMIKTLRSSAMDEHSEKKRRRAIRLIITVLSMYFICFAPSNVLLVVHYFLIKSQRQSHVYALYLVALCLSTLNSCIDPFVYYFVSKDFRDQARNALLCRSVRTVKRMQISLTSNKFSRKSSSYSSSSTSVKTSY

[8] = target: T1, Proteinase-activated receptor 2; assay: Displacement of [3H]-2-furoyl-LIGRL-NH2 from human PAR2 expressed in human NCTC-2544 cells after 60 mins by scintillation counting analysis; format: cell-based
[9] = target: T1, Proteinase-activated receptor 2; assay: Agonist activity at human PAR2 expressed in HEK293T cells assessed as increase in intracellular calcium level by bioluminescence assay; format: functional, cell-based, HEK-293T
[10] = target: T1, Proteinase-activated receptor 2; assay: Agonist activity at human PAR2 expressed in HEK293T cells assessed as stimulation of phosphatidylinositol hydrolysis after 45 mins by scintillation counting analysis; format: functional, cell-based, HEK-293T
[11] = target: T1, Proteinase-activated receptor 2; assay: Antagonist activity at PAR2 in human HCT15 cells assessed as inhibition of SLIGKV-NH2-induced intracellular calcium release; format: functional, cell-based, HCT-15
[12] = target: T1, Proteinase-activated receptor 2; assay: Agonist activity at PAR2 in human 16HBE14o- cells assessed as increase in intracellular calcium level; format: functional, cell-based
[13] = target: T1, Proteinase-activated receptor 2; assay: Agonist activity at PAR2 in human 16HBE14o- cells assessed as increase in MAPK level; format: cell-based
[14] = target: T1, Proteinase-activated receptor 2; assay: Antagonist activity at human PAR2 expressed in human A549 cells assessed as inhibition of 2f-LIGRLO-NH2-induced NFkappaB activation by luciferase reporter gene assay; format: cell-based
[15] = target: T1, Proteinase-activated receptor 2; assay: Antagonist activity at human PAR2 expressed in human A549 cells coexpressing TACR1 assessed as inhibition of substance P-induced IL-8 production by ELISA; format: cell-based
[16] = target: T3, Proteinase-activated receptor 1 (Homo sapiens, UniProt P25116); assay: Agonist activity at human PAR1 expressed in African green monkey COS7 cells assessed as stimulation of inositol triphosphate production; format: functional, cell-based, COS-7
T3 sequence (P25116 whole entry): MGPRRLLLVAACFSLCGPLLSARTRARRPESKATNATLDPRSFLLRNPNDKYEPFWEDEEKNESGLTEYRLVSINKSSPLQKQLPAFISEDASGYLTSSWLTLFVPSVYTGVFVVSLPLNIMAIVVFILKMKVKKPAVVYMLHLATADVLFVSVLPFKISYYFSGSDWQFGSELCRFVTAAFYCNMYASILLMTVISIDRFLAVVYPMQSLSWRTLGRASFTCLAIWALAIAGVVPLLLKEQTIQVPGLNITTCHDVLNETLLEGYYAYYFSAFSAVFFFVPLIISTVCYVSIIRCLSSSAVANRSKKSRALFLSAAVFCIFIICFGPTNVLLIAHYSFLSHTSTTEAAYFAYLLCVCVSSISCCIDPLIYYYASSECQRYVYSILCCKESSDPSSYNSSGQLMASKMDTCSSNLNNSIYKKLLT

[17] = target: Proteinase-activated receptor 2 (Homo sapiens) (UniProt P55085); assay: Antagonist activity at PAR2 in human SW620 cells assessed as inhibition of SLIGRL-NH2-induced intracellular calcium release at 6 uM relative to control; format: functional, cell-based; design: scale not given: the % may be the effect or the level left; settings: SW-620
[18] = target: T1, Proteinase-activated receptor 2; assay: Antagonist activity at PAR2 in human HT-29 cells assessed as inhibition of 2f-LIGRLO-NH2-induced intracellular calcium release; format: functional, cell-based
[19] = target: T1, Proteinase-activated receptor 2; assay: Antagonist activity at PAR2 in human HT-29 cells assessed as inhibition of trypsin-induced intracellular calcium release; format: functional, cell-based

EC50 [1]: 200 nM
Structure (SMILES): CC[C@H](C)[C@H](NC(=O)[C@H](Cc1ccc([N+](=O)[O-])cc1)NC(=O)[C@H](CCCN=C(N)N)NC(=O)CNC(=O)[C@@H](NC(=O)[C@H](CC(C)C)NC(=O)c1ccco1)[C@@H](C)CC)C(N)=O (2Furoyl-LIGR[Phe(4-NO2)]I-NH2)

IC50 [2]: 1100 nM
Ki [3]: 600 nM
Structure (SMILES): NCCCC[C@H](NC(=O)CNC(=O)Nc1ccc2c(c1)c(CN1CCCC1)cn2Cc1c(Cl)cccc1Cl)C(=O)N[C@@H](Cc1ccccc1)C(=O)NC(c1ccccc1)c1ccccc1

IC50 [4]: 1000 nM
Structure (SMILES): CC[C@H](C)[C@H](NC(=O)[C@H](CC1CCCCC1)NC(=O)c1ccno1)C(=O)N1CCC2(C=Cc3ccccc32)CC1

IC50 [5]: 700000 nM
Structure (SMILES): CC(C)C[C@H](NC(=O)[C@H](CC(C)C)NC(=O)[C@H](CO)NC(=O)[C@H](Cc1ccccc1)NC(=O)[C@H](CCCNC(=N)N)NC(=O)[C@@H](N)CCCNC(=N)N)C(=O)N[C@@H](CCCNC(=N)N)C(=O)N[C@@H](Cc1ccc(O)cc1)C(N)=O (H-RRFSLLRY-NH2)

Structure (SMILES): CC[C@H](C)[C@H](NC(=O)[C@H](CC(C)C)NC(=O)[C@@H](N)CO)C(=O)NCC(=O)N[C@@H](CCCNC(=N)N)C(=O)N[C@@H](CC(C)C)C(N)=O (H-SLIGRL-NH2)
EC50 [6]: 5000 nM

IC50 [7]: 50000 nM
Structure (SMILES): CC[C@H](C)[C@H](NC(=O)[C@H](CO)NC(=O)[C@@H](N)CC(C)C)C(=O)NCC(=O)N[C@@H](CCCNC(=N)N)C(=O)N[C@@H](CC(C)C)C(N)=O (H-LSIGRL-NH2)

IC50 [7]: 50000 nM
Structure (SMILES): CC(C)C[C@H](NC(=O)[C@H](CC(C)C)NC(=O)[C@H](CO)NC(=O)[C@@H](N)Cc1ccccc1)C(=O)N[C@@H](CCCNC(=N)N)C(=O)N[C@@H](Cc1ccc(O)cc1)C(N)=O (H-FSLLRY-NH2)

EC50 [1]: 200 nM
IC50 [8]: 100 nM
Structure (SMILES): CC[C@H](C)[C@H](NC(=O)[C@H](CC(C)C)NC(=O)c1ccco1)C(=O)NCC(=O)N[C@@H](CCCN=C(N)N)C(=O)N[C@@H](CC(C)C)C(=O)N[C@@H](CCCN)C(N)=O (2Furoyl-LIGRL[Orn]-NH2)

IC50 [4]: 2000 nM
Structure (SMILES): CC[C@H](C)[C@H](NC(=O)[C@H](CC1CCCCC1)NC(=O)c1ccno1)C(=O)N1CCC2(CCc3ccccc32)CC1

EC50 [9]: 30 nM
EC50 [10]: 30 nM
Structure (SMILES): C/C(=N\NC(=O)[C@@H]1C(=O)NC[C@H]1c1ccccc1)c1cccc(Br)c1

IC50 [11]: 243000 nM
Structure (SMILES): Cc1cccc(Cn2c(C)nc3cc(C(=O)N4CCCCC4)ccc32)c1

EC50 [12]: 4 nM
EC50 [13]: 10 nM
Structure (SMILES): CCCCCCCCCCCCCCCC(=O)OCCOCCOCCNCCC[C@H](NC(=O)[C@H](CC(C)C)NC(=O)[C@H](CCCNC(=N)N)NC(=O)CNC(=O)[C@@H](NC(=O)[C@H](CC(C)C)NC(=O)c1csc(N)n1)[C@@H](C)CC)C(N)=O ({4Thiazolecarbonyl(2-NH2)}-LIGRL[X1]-NH2)

Structure (SMILES): CC(C)[C@]12O[C@H]1[C@@H]1O[C@]13[C@]1(O[C@H]1C[C@H]1C4=C(CC[C@@]13C)C(=O)OC4)[C@@H]2O [TRIPTOLIDE]
IC50 [14]: 14 nM
IC50 [15]: 23 nM

IC50 [11]: 34000 nM
Structure (SMILES): COc1ccc(Br)c(C(=O)Nn2c(-c3ccc(F)cc3)nc3ccccc3c2=O)c1

EC50 [16]: 180 nM
Structure (SMILES): CCCCCCCCCCCCCCCC(=O)N[C@@H](CCCN=C(N)N)C(=O)N[C@@H](CS)C(=O)N[C@@H](CC(C)C)C(=O)N[C@@H](CO)C(=O)N[C@@H](CO)C(=O)N[C@@H](CO)C(=O)N[C@@H](C)C(=O)N[C@H](C(=O)N[C@@H](C)C(=O)N[C@@H](CC(N)=O)C(=O)N[C@@H](CCCN=C(N)N)C(=O)N[C@@H](CO)C(=O)N[C@@H](CCCCN)C(=O)N[C@@H](CCCCN)C(=O)N[C@@H](CO)C(=O)N[C@@H](CCCN=C(N)N)C(=O)N[C@@H](CC(C)C)C(=O)N[C@@H](Cc1ccccc1)C(=O)O)C(C)C (Palmitoyl-RCLSSSAVANRSKKSRLF-OH)

Activity [17]: 53%
Structure (SMILES): CCCCCCCCCCCCCCCC(=O)NCC(=O)N[C@@H](CC(=O)O)C(=O)N[C@@H](CCC(=O)O)C(=O)N[C@@H](CC(N)=O)C(=O)N[C@@H](CO)C(=O)N[C@@H](CCC(=O)O)C(=O)N[C@@H](CCCCN)C(=O)N[C@@H](CCCCN)C(=O)N[C@@H](CCCNC(=N)N)C(=O)N[C@@H](CCCCN)C(=O)N[C@@H](CCC(N)=O)C(=O)N[C@@H](C)C(=O)N[C@H](C(=O)N[C@@H](CCCCN)C(=O)O)[C@@H](C)CC (Palmitoyl-GDENSEKKRKQAIK-OH)

IC50 [18]: 400 nM
IC50 [19]: 1900 nM
Structure (SMILES): CC[C@H](C)[C@H](NC(=O)[C@H](CC1CCCCC1)NC(=O)c1ccno1)C(=O)NCc1ccccc1OC

Reference: ChEMBL document CHEMBL2429713, “Toward drugs for protease-activated receptor 2 (PAR2)” (J Med Chem, 2013)
